Data from the CheMixHub viscosity set.
Values joined by “and” are separate entries in the source; they are usually repeats but may differ in a detail not shown here. Equal entries are not always repeated.

Assay: xn = mol fraction of the nth substance listed

CCCO + O
Conditions	viscosity
293.15 K, 100 kPa, x1 = 0.07	2.217 mPa·s
293.15 K, 100 kPa, x1 = 0.2	3.175 mPa·s and 3.013 mPa·s
293.15 K, 101 kPa, x1 = 0.01	1.156 mPa·s
293.15 K, 101 kPa, x1 = 0.02	1.335 mPa·s
293.15 K, 101 kPa, x1 = 0.05	1.898 mPa·s
293.15 K, 101 kPa, x1 = 0.07	2.209 mPa·s
293.15 K, 101 kPa, x1 = 0.1	2.545 mPa·s
293.15 K, 101 kPa, x1 = 0.2838	3.191 mPa·s
293.15 K, 101 kPa, x1 = 0.3	3.173 mPa·s
293.15 K, 101 kPa, x1 = 0.4	3.053 mPa·s
293.15 K, 101 kPa, x1 = 0.5	2.88 mPa·s
293.15 K, 101 kPa, x1 = 0.6	2.707 mPa·s
293.15 K, 101 kPa, x1 = 0.7001	2.537 mPa·s
293.15 K, 101 kPa, x1 = 0.8	2.403 mPa·s
298.15 K, 101 kPa, x1 = 0.0058	0.9625 mPa·s
298.15 K, 101 kPa, x1 = 0.01	1.024 mPa·s
298.15 K, 101 kPa, x1 = 0.02	1.16 mPa·s
298.15 K, 101 kPa, x1 = 0.0237	1.225 mPa·s
298.15 K, 101 kPa, x1 = 0.0461	1.552 mPa·s
298.15 K, 101 kPa, x1 = 0.05	1.603 mPa·s
298.15 K, 101 kPa, x1 = 0.0678	1.82 mPa·s
298.15 K, 101 kPa, x1 = 0.07	1.844 mPa·s
298.15 K, 101 kPa, x1 = 0.0976	2.164 mPa·s
298.15 K, 101 kPa, x1 = 0.1195	2.263 mPa·s
298.15 K, 101 kPa, x1 = 0.1833	2.576 mPa·s
298.15 K, 101 kPa, x1 = 0.2398	2.682 mPa·s
298.15 K, 101 kPa, x1 = 0.2838	2.685 mPa·s
298.15 K, 101 kPa, x1 = 0.3108	2.702 mPa·s
298.15 K, 101 kPa, x1 = 0.4	2.592 mPa·s
298.15 K, 101 kPa, x1 = 0.4971	2.511 mPa·s
298.15 K, 101 kPa, x1 = 0.5	2.465 mPa·s
298.15 K, 101 kPa, x1 = 0.6	2.333 mPa·s
298.15 K, 101 kPa, x1 = 0.6916	2.236 mPa·s
298.15 K, 101 kPa, x1 = 0.7001	2.202 mPa·s
298.15 K, 101 kPa, x1 = 0.8	2.097 mPa·s
298.15 K, 101 kPa, x1 = 0.8011	2.129 mPa·s
298.15 K, 101 kPa, x1 = 0.8967	2.039 mPa·s
298.15 K, 101 kPa, x2 = 0.0021	1.985 mPa·s
298.15 K, 101 kPa, x2 = 0.0695	2.041 mPa·s
298.15 K, 101 kPa, x2 = 0.0932	2.063 mPa·s
298.15 K, 101 kPa, x2 = 0.1232	2.085 mPa·s
298.15 K, 101 kPa, x2 = 0.1439	2.104 mPa·s
298.15 K, 101 kPa, x2 = 0.1892	2.142 mPa·s
298.15 K, 101 kPa, x2 = 0.2084	2.16 mPa·s
298.15 K, 101 kPa, x2 = 0.9678	1.11 mPa·s
298.15 K, 101.3 kPa, x1 = 0.01	1.027 mPa·s
298.15 K, 101.3 kPa, x1 = 0.025	1.247 mPa·s
298.15 K, 101.3 kPa, x1 = 0.045	1.55 mPa·s
298.15 K, 101.3 kPa, x1 = 0.065	1.81 mPa·s
298.15 K, 101.3 kPa, x1 = 0.08	1.969 mPa·s
303.15 K, 101 kPa, x1 = 0.01	0.906 mPa·s
303.15 K, 101 kPa, x1 = 0.02	1.019 mPa·s
303.15 K, 101 kPa, x1 = 0.05	1.366 mPa·s
303.15 K, 101 kPa, x1 = 0.07	1.555 mPa·s
303.15 K, 101 kPa, x1 = 0.1	1.786 mPa·s
303.15 K, 101 kPa, x1 = 0.2838	2.277 mPa·s
303.15 K, 101 kPa, x1 = 0.3	2.267 mPa·s
303.15 K, 101 kPa, x1 = 0.4	2.216 mPa·s
303.15 K, 101 kPa, x1 = 0.5	2.118 mPa·s
303.15 K, 101 kPa, x1 = 0.6	2.023 mPa·s
303.15 K, 101 kPa, x1 = 0.7001	1.92 mPa·s
303.15 K, 101 kPa, x2 = 0.0998	1.794 mPa·s
303.15 K, 101 kPa, x2 = 0.2	1.852 mPa·s
303.15 K, 101 kPa, x2 = 0.2998	1.94 mPa·s
303.15 K, 101 kPa, x2 = 0.5001	2.135 mPa·s
303.15 K, 101 kPa, x2 = 0.6996	2.273 mPa·s
303.15 K, 101 kPa, x2 = 0.7953	2.212 mPa·s
303.15 K, 101 kPa, x2 = 0.8997	1.795 mPa·s
303.15 K, 101 kPa, x2 = 0.9401	1.463 mPa·s
303.15 K, 101 kPa, x2 = 0.98	1.025 mPa·s
308.15 K, 101 kPa, x1 = 0.01	0.81 mPa·s
308.15 K, 101 kPa, x1 = 0.02	0.912 mPa·s
308.15 K, 101 kPa, x1 = 0.05	1.187 mPa·s
308.15 K, 101 kPa, x1 = 0.07	1.342 mPa·s
308.15 K, 101 kPa, x1 = 0.1	1.53 mPa·s
308.15 K, 101 kPa, x1 = 0.2838	1.951 mPa·s
308.15 K, 101 kPa, x1 = 0.3	1.953 mPa·s
308.15 K, 101 kPa, x1 = 0.4	1.915 mPa·s
308.15 K, 101 kPa, x1 = 0.5	1.84 mPa·s
308.15 K, 101 kPa, x1 = 0.6	1.765 mPa·s
308.15 K, 101 kPa, x1 = 0.7001	1.686 mPa·s
308.15 K, 101 kPa, x1 = 0.8	1.623 mPa·s
308.15 K, 101 kPa, x2 = 0.9678	0.9401 mPa·s
313.15 K, 101 kPa, x1 = 0.01	0.728 mPa·s
313.15 K, 101 kPa, x1 = 0.02	0.807 mPa·s
313.15 K, 101 kPa, x1 = 0.05	1.039 mPa·s
313.15 K, 101 kPa, x1 = 0.07	1.167 mPa·s
313.15 K, 101 kPa, x1 = 0.1	1.33 mPa·s
313.15 K, 101 kPa, x1 = 0.2	1.625 mPa·s
313.15 K, 101 kPa, x1 = 0.2838	1.69 mPa·s
313.15 K, 101 kPa, x1 = 0.3	1.692 mPa·s
313.15 K, 101 kPa, x1 = 0.5	1.61 mPa·s
313.15 K, 101 kPa, x1 = 0.6	1.547 mPa·s
313.15 K, 101 kPa, x1 = 0.7001	1.485 mPa·s
318.15 K, 101 kPa, x1 = 0.01	0.659 mPa·s
318.15 K, 101 kPa, x1 = 0.02	0.726 mPa·s
318.15 K, 101 kPa, x1 = 0.05	0.919 mPa·s
318.15 K, 101 kPa, x1 = 0.07	1.027 mPa·s
318.15 K, 101 kPa, x1 = 0.1	1.164 mPa·s
318.15 K, 101 kPa, x1 = 0.2	1.42 mPa·s
318.15 K, 101 kPa, x1 = 0.3	1.479 mPa·s
318.15 K, 101 kPa, x1 = 0.4	1.46 mPa·s
318.15 K, 101 kPa, x1 = 0.5	1.416 mPa·s
318.15 K, 101 kPa, x1 = 0.6	1.366 mPa·s
318.15 K, 101 kPa, x1 = 0.7001	1.315 mPa·s
318.15 K, 101 kPa, x2 = 0.9678	0.819 mPa·s
323.15 K, 100 kPa, x1 = 0.07	0.917 mPa·s
323.15 K, 100 kPa, x1 = 0.2	1.212 mPa·s
323.15 K, 100 kPa, x1 = 0.3	1.314 mPa·s
323.15 K, 101 kPa, x1 = 0.01	0.6 mPa·s
323.15 K, 101 kPa, x1 = 0.02	0.657 mPa·s
323.15 K, 101 kPa, x1 = 0.05	0.82 mPa·s
323.15 K, 101 kPa, x1 = 0.07	0.912 mPa·s
323.15 K, 101 kPa, x1 = 0.1	1.03 mPa·s
323.15 K, 101 kPa, x1 = 0.2	1.25 mPa·s
323.15 K, 101 kPa, x1 = 0.5	1.252 mPa·s
323.15 K, 101 kPa, x1 = 0.6	1.212 mPa·s
323.15 K, 101 kPa, x1 = 0.7001	1.171 mPa·s
